Reference: US20170280720A1, “ARGININE […] INHIBITORS AND USES THEREOF” (EPIZYME, INC., priority 2014, published 2017)

Key:
[1] = tested on: asymmetric di-methyl PABP1 in RKO cells; assay: In Cell Western (ICW) for asymmetric di-methyl PABP1 and DNA content in RKO cells; format: cell-based; settings: In Cell Western
Source text: RKO adherent cells were purchased from ATCC (American Type Culture Collection), Manassas, Va., USA. DMEM/Glutamax medium, penicillin-streptomycin, heat inactivated fetal bovine serum, 0.05% trypsin and D-PBS were purchased from Life Technologies, Grand Island, N.Y., USA. Odyssey blocking buffer, 800CW goat anti-rabbit IgG (H+L) antibody, and Licor Odyssey infrared scanner were purchased from Licor Biosciences, Lincoln, Nebr., USA. Mono-methyl arginine antibody was purchased from Cell Signaling Technology, Danvers, Mass., USA. Methanol was purchased from VWR, Franklin, Mass., USA. 10% Tween 20 was purchased from KPL, Inc., Gaithersburg, Md., USA. […] was purchased from Biostatus Limited, Leicestershire, UK. RKO adherent cells were maintained in growth medium (DMEM/Glutamax medium supplemented with 10% v/v heat inactivated fetal bovine serum and 100 units/mL penicillin-streptomycin) and cultured at 37° C. under 5% CO2. Cell Treatment, in Cell Western (ICW) for Detection of Asymmetric Di-Methyl PABP1 and DNA Content. RKO cells were seeded in assay medium at a concentration of 30,000 cells per mL to a poly-D-lysine coated 384 well culture plate (BD Biosciences 356697) with 50 μL per well. Compound (100 nL) from a 96-well source plate was added directly to 384 well cell plate. Plates were incubated at 37° C., 5% CO2 for 48 hours. After two days of incubation, plates were brought to room temperature outside of the incubator for ten minutes and blotted on paper towels to remove cell media. Cells were fixed for 20 minutes at room temperature by adding 50 μl of 8% PFA followed by aspiration of supernatant with the Biotek EL406 plate washer. Cells were then permeabilized by addition of 50 μL of ice cold 100% methanol directly to each well and incubated for 30 min at room temperature. After 30 min, plates were transferred to a Biotek EL406 plate washer and washed 2 times with 100 μL per well of wash buffer (1×PBS). Next 60 μL per well of Odyssey blocking buffer (Odyssey Buffer with 0.1% Tween 20 (v/v)) were added to each plate and incubated 1 hour at room temperature. Blocking buffer was removed and 20 μL per well of primary antibody was added (asymmetric-methyl PABP1) diluted 1:400 in Odyssey buffer with 0.1% Tween 20 (v/v)) and plates were incubated overnight (16 hours) at 4° C. Plates were washed 5 times with 100 μL per well of wash buffer. Next 20 μL per well of secondary antibody was added (1:800 800CW goat anti-rabbit IgG (H+L) antibody, 1:2000 DRAQS in Odyssey buffer with 0.1% Tween 20 (v/v)) and incubated for 1 hour at room temperature. The plates were washed 5 times with 100 μL per well wash buffer then 2 times with 100 μL per well of water. Plates were allowed to dry at room temperature then imaged on the Licor Odyssey machine which measures integrated intensity at 700 nm and 800 nm wavelengths. Both 700 and 800 channels were scanned. Calculations: First, the ratio for each well was determined by: Each plate included fourteen control wells of DMSO only treatment (minimum inhibition) as well as fourteen control wells for maximum inhibition treated with 20 μM of a reference compound. The average of the ratio values for each control type was calculated and used to determine the percent activation for each test well in the plate. Reference compound was serially diluted three-fold in DMSO for a total of nine test concentrations, beginning at 20 μM. Percent inhibition was determined and IC50 curves were generated using triplicate wells per concentration of compound.

human PRMT1 = molecular target: T1, human PRMT1 (Homo sapiens, UniProt Q99873); assay: PRMT1 biochemical assay (3H-SAM Flashplate, peptide substrate); settings: read-out: PRMT1_ IC50
T1 construct: GST-tagged PRMT1; made in house; host or cells: High Five insect cells (baculovirus, pFastBacI)
Source text: S-adenosylmethionine (SAM), S-adenosylhomocysteine (SAH), bicine, Tween20, dimethylsulfoxide (DMSO), bovine skin gelatin (BSG), and Tris(2-carboxyethyl)phosphine hydrochloride solution (TCEP) were purchased from Sigma-Aldrich at the highest level of purity possible. ^3H-SAM was purchase from American Radiolabeled Chemicals with a specific activity of 80 Ci/mmol. 384-well streptavidin Flashplates were purchased from PerkinElmer.
Peptide representative of human histone H4 residues 36-50 was synthesized with an N-terminal linker-affinity tag motif and a C-terminal amide cap by 21st Century Biochemicals. The peptide was purified by high-performance liquid chromatography (HPLC) to greater than 95% purity and confirmed by liquid chromatography mass spectrometry (LC-MS). The sequence was Biot-Ahx-[…]-amide (SEQ ID NO.: 1).
Full-length human PRMT1 isoform 1 (NM_001536.5) transcript clone was amplified from an HEK 293 cDNA library, incorporating flanking 5′ sequence encoding a FLAG tag ([…]) (SEQ ID NO.: 2) fused directly to Met 1 of PRMT1. The amplified gene was subcloned into pFastBacI (Life Technologies) modified to encode an N-terminal GST tag and a TEV cleavage sequence ([…] […] […] […] QGGNS)(SEQ ID NO.: 3) fused to Asp of the Flag tag of PRMT1.
Recombinant baculovirus were generated according to Bac-to-Bac kit instructions (Life Technologies). Protein over-expression was accomplished by infecting exponentially growing High Five insect cell culture at 1.5×10^6 cell/ml with 1:100 ratio of virus. Infections were carried out at 27° C. for 48 hours, harvested by centrifugation, and stored at −80° C. for purification.
GST-tagged PRMT1 was eluted with 50 mM Tris, 2 mM glutathione, pH 7.8, dialysed in buffer A and concentrated to 1 mg/mL. The purity of recovered protein was 73%. Reference: Wasilko, D. J. and S. E. Lee: “TIPS: titerless infected-cells preservation and scale-up” Bioprocess J., 5 (2006), pp. 29-32.
General Procedure for PRMT1 Enzyme Assays on Peptide Substrates.
The assays were all performed in a buffer consisting of 20 mM Bicine (pH=7.6), 1 mM TCEP, 0.005% BSG, and 0.002% Tween 20, prepared on the day of use. Compounds in 100% DMSO (1 ul) were spotted into a polypropylene 384-well V-bottom plates (Greiner) using a Platemate Plus outfitted with a 384-channel head (Thermo Scientific). DMSO (1 ul) was added to Columns 11, 12, 23, 24, rows A-H for the maximum signal control and 1 ul of SAH, a known product and inhibitor of PRMT1, was added to columns 11, 12, 23, 24, rows I-P for the minimum signal control. A cocktail (40 ul) containing the PRMT1 enzyme was added by Multidrop Combi (Thermo-Fisher). The compounds were allowed to incubate with PRMT1 for 30 min at room temperature, then a cocktail (10 ul) containing SAM and peptide was added to initiate the reaction (final volume=51 ul). The final concentrations of the components were as follows: PRMT1 was 0.5 nM, ^3H-SAM was 200 nM, non-radiolabeled SAM was 1.5 uM, peptide was 20 nM, SAH in the minimum signal control wells was 1 mM, and the DMSO concentration was 2%. The assays were stopped by the addition of non-radiolabeled SAM (10 ul) to a final concentration of 300 uM, which dilutes the ^3H-SAM to a level where its incorporation into the peptide substrate is no longer detectable. 50 ul of the reaction in the 384-well polypropylene plate was then transferred to a 384-well Flashplate and the biotinylated peptides were allowed to bind to the streptavidin surface for at least 1 hour before being washed once with 0.1% Tween20 in a Biotek ELx405 plate washer. The plates were then read in a PerkinElmer TopCount plate reader to measure the quantity of ^3H-labeled peptide bound to the Flashplate surface, measured as disintegrations per minute (dpm) or alternatively, referred to as counts per minute (cpm).
Where dpm=disintegrations per minute, cmpd=signal in assay well, and min and max are the respective minimum and maximum signal controls. […]

T1 sequence (Q99873 with tags, fused parts or gaps): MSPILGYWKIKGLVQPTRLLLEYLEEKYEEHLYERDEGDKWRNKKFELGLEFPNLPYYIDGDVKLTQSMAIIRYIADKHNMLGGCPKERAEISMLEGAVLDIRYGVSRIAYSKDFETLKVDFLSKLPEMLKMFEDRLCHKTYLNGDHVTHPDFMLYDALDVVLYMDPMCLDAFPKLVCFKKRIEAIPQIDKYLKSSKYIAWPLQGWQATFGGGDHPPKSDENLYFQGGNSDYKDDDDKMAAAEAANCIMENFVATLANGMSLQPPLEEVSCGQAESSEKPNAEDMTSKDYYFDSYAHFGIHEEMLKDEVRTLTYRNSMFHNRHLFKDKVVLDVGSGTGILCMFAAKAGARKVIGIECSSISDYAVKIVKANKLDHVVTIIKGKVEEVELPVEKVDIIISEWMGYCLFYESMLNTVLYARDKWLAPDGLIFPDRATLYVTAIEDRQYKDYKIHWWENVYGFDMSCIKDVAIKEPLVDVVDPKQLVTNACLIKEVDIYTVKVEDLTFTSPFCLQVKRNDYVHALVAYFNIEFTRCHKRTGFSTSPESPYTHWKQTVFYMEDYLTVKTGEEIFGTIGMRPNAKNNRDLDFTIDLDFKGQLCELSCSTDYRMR

| Compound | IC50 (human PRMT1) | other results |
| --- | --- | --- |
| CNCCN(C)Cc1cccc(-c2cc(C(=O)NCc3cc(C)on3)c3cnn(C(C)C)c3n2)c1 [Compound 186] | – | IC50 ([1]; Homo sapiens, RKO): 1400 nM |
| CNCCN(C)Cc1cccc(-c2cc(C(=O)NCc3cc(C)on3)c3cnn(C(C)C)c3n2)c1 [Compound 229] | – | IC50 [1]: 2250 nM |
| CNCCN(C)Cc1cccc(-c2cncc(C(=O)NCc3c(C)cc(C)[nH]c3=O)c2)c1 [Compound 375] | 101 nM | – |
| Cc1cc(C)c(CNC(=O)c2cncc(-c3cccc(CN(C)CCN)c3)c2)c(=O)[nH]1 [Compound 380] | 340 nM | – |
